# Results as given in article PMC8868193 (Antibiotics, 2022).
# pIC50: −log10 of the molar value. Like-named read-outs stand apart in the source and are kept apart here. Non-standard residues stand in square brackets, D forms with d. Residues, ends and D or L forms follow the SMILES beside them. NMeA = CN[C@@H](C)C(=O)O
# Key:
# Candida albicans SC5314 = assay: microbe, parasite or virus in culture; details: for MIC: Candida albicans; for Anti-Fungal MICs: SC5314, pH 7
# Experimental: Candida albicans SC5314 was used as a test strain for the antifungal and synergistic antifungal bioassay. Checkerboard assays were carried out as described previously. Overnight cultures were chosen to prepare the strain suspension with RPMI 1640 medium. RPMI 1640 was purchased from Invitrogen, and was used according to the manufacturer’s protocol, by supplementing 2% glucose, 3.45% MOS, then adjusting the pH to 7.0. Compounds were dissolved in DMSO. Final concentrations ranged from 0.002 to 2 μg/mL for rapamycin and 0.39 to 25 μg/mL for peptide-like compounds, respectively. Rapamycin was 2-fold diluted from 1 to 11 (column), while selected compounds were 2-fold diluted from A to G (row) of the 96-well microtiter plate. The fractional inhibitory concentration index (FICI) is defined as the sum of the MIC of each drug when used in combination divided by the MIC of the drug used alone. Synergism and antagonism were defined by FICI of ≤0.5 and >4, respectively.
# HDAC8 = target: T1, HDAC8 (Homo sapiens, UniProt Q9BY41); assay: HDAC activity assay (HDAC8 Deacetylase Fluorometric (Human) Assay Kit); assay type: biochemical; details: triplicate
# T1 construct: purchased Abnova KA4444
# T1 sequence (Q9BY41 1-377): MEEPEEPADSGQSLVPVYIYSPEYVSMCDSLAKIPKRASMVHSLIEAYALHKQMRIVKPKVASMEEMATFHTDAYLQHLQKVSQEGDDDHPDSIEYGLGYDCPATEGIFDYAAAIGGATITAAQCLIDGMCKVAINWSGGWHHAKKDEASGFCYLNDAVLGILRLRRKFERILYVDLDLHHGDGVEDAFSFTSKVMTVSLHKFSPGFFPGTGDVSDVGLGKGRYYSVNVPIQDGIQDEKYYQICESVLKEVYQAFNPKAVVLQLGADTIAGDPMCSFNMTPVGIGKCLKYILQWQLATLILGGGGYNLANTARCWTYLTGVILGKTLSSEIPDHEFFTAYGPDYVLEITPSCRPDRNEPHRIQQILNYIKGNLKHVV
# Experimental: The HDAC activity of the compounds was measured using an HDAC8 Deacetylase Fluorometric (Human) Assay Kit (Cat KA4444, Abnova, Taipei, Taiwan) according to the manufacturer’s instructions. Fluorescence signal was detected with excitation at 360 nm and emission at 460 nm using a fluorescence microplate reader (Perkin-Elmer, Waltham, MA, USA). Experiments were performed in triplicate and data were analyzed using GraphPad Prism (version 6.0), Kd values were calculated by nonlinear curve fitting using a 1-site binding (hyperbola) model (Y = Bmax*X/(Kd + X).
# [1] = parameters: method as in 3 sources, ref [9] = [9]; PMID 16839576; doi:10.1016/j.phytochem.2006.05.033; 9. Walton J.D. HC-toxin Phytochemistry 2006 67 1406 1413 10.1016/j.phytochem.2006.05.033 16839576 ||| ref [16] = [16]; PMID 35747077; doi:10.1039/D0RA09388B; 16. Lin X. Chai L. Zhu H.R. Zhou Y. Lin. H.W. Applying molecular networking for targeted isolation of depsipeptides RSC Adv. 2021 11 2774 10.1039/D0RA09388B PMC9134009 35747077 ||| ref [17] = [17]; PMID 32528927; doi:10.3389/fchem.2020.00397; 17. Sala G.D. Mangoni A. Costantino V. Teta R. Identification of the biosynthetic gene cluster of thermoactinoamides and discovery of new congeners by integrated genome mining and MS-Based molecular n; details: literature, cited from earlier work
# [2] = literature; ref [10]; cited from earlier work
# Text: Fungal natural products play a prominent role in the development of pharmaceutical agents.
# [3] = SC5314, pH 7, read-out: Anti-Fungal MICs
molecule,measurement,setting,value
"C[C@@H]1[C@H](O)[C@@H](C)/C=C/C=C/C=C/C=C/C=C/C=C/C=C/[C@H](O[C@@H]2O[C@H](C)[C@@H](O)[C@H](N)[C@@H]2O)C[C@@H]2O[C@](O)(C[C@@H](O)C[C@@H](O)[C@H](O)CC[C@@H](O)C[C@@H](O)CC(=O)O[C@H]1C)C[C@H](O)[C@H]2C(=O)O [Amphotericin B, reference compound]",MIC,Candida albicans SC5314; [3],0.5 µM
same,MIC,"Candida albicans SC5314; SC5314, pH 7, read-out: Synergistic Anti-Fungal MICs",0.125 µM
"CC[C@H](C)[C@@H]1NC(=O)[C@H](C(C)C)NC(=O)[C@@H](Cc2ccc(OC)cc2)NC(=O)[C@H](C)N(C)C1=O [Compound 1, cyclo-[L-N-Me-Ala-L-Ile-L-Val-D-O-Me-Tyr]] (cyclo(I[NMeA][dY](Me)V))",Anti-Fungal MICs,Candida albicans SC5314,>100 µM
same,pIC50,"HDAC8; text: HDAC at the cell level, method: HDAC8 fluorometric kit, ex 360 nm / em 460 nm, read-out: HDAC inhibition IC50",~4.15
"CC[C@H](C)[C@@H]1NC(=O)[C@H]([C@@H](C)O)NC(=O)[C@@H](Cc2ccc(OC)cc2)NC(=O)[C@H](C)N(C)C1=O [Compound 2, cyclo-[L-N-Me-Ala-L-Ile-L-Thr-D-O-Me-Tyr]] (cyclo([NMeA][dY](Me)TI))",Anti-Fungal MICs,Candida albicans SC5314,>100 µM
same,antifungal activity alone (in words),"Candida albicans SC5314; compound alone, C. albicans",no antifungal effects alone
same,Synergistic Anti-Fungal MICs,"Candida albicans SC5314; with 0.008 μM rapamycin, C. albicans SC5314, checkerboard, RPMI 1640, pH 7.0, start concentration 25 μM, 90% growth inhibition",6.25 µM
same,concentration of compound required with rapamycin for achieving 90% growth inhibition (checkerboard MIC),"Candida albicans SC5314; with 0.008 μM rapamycin, Candida albicans SC5314",6.25 µM
same,HDAC inhibitory activity (in words),HDAC8; HDAC8 fluorometric kit,weak HDAC (histone deacetylase) inhibitory activity
"CO[C@H]1C[C@@H]2CC[C@@H](C)[C@@](O)(O2)C(=O)C(=O)N2CCCC[C@H]2C(=O)O[C@H]([C@H](C)C[C@@H]2CC[C@@H](O)[C@H](OC)C2)CC(=O)[C@H](C)/C=C(\C)[C@@H](O)[C@@H](OC)C(=O)[C@H](C)C[C@H](C)/C=C/C=C/C=C/1C [Rapamycin, reference compound]",MIC,Candida albicans SC5314; [3],0.5 µM
same,concentration of rapamycin required in combination for achieving 90% growth inhibition (checkerboard MIC),"Candida albicans SC5314; together with 6.25 μM of compounds 1 and 2, Candida albicans SC5314",0.008 µM
HC toxin,cytotoxic / antimitogenic activity (in words),[1]; ref [9],cytotoxic and antimitogenic activities
apicidin,antiprotozoan activity (in words),[2],antiprotozoan activities
neoantimycin L,cytotoxicity (in words),[1]; ref [16],excellent cytotoxicity
thermoactinoamide A,antiproliferative activity (in words),[1]; ref [17],moderate antiproliferative activity
